{
  "source": "patent US20190083646A1",
  "about": "“MUTANT SMOOTHENED AND METHODS OF USING THE SAME” (CURIS, INC., priority 2016, published 2019)",
  "key": {"[1]": {"system": "metastatic basal cell carcinoma (mBCC)", "assay": "Vismodegib treatment of metastatic basal cell carcinoma (mBCC) patients, overall response assessment", "format": "in vivo, human", "description": "Clinical responses to targeted therapies (e.g., cancer therapies) can be short-lived due to the acquisition of genetic alterations that confer drug resistance. Identification of resistance mechanisms will guide novel therapeutic strategies. Inappropriate Hh signaling is linked to several cancers, including basal cell carcinoma (BCC). Loss-of-function mutations in PTCH (˜90%) and activating mutations in SMO (˜10%) are the primary drivers in BCC. Clinical mechanisms of resistance to vismodegib (GDC-0449) were identified by assessing vismodegibsensitivity and mutation status of BCCs from patients using the FoundationOne™ next-generation sequencing (NGS) platform. FIG. 1 lists characteristics of the mBCC (metastatic basal cell carcinoma) patients treated with vismodegib.\nPatient Treatment Histories\n008: patient with metastatic basal cell carcinoma (mBCC). No prior surgery for BCC was reported. Prior systemic therapy for metastatic BCC included the following agent: anthracycline chemotherapy. Sites of metastases at the time of screening included soft tissue in the right hemi pelvis. Measurable lesions were identified on the skin/soft tissue next to the right OS ilium, next to the right femur and ventral surface of the OS sacrum. Non-measurable lesions were identified on the bone destruction region in OS ilium and OS sacrum. The patient received their first dose of 150 mg vismodegib Study Day 1.\n001: patient with metastatic basal cell carcinoma (mBCC). Prior surgery for BCC included 6 skin neoplasm excisions. No prior topical or systemic therapy for BCC was reported. Sites of metastases at the time of screening included skin of head. Measurable lesions were identified on skin of head (lymph nodes [besides trachea and infracarinal]). The patient received their first dose of 150 mg vismodegib on Study Day 1.\n002: patient with metastatic basal cell carcinoma (mBCC). Prior surgery for BCC included skin neoplasm excision. No prior topical or systemic therapy for BCC was reported. Sites of metastases at the time of screening (24 Jan. 2012) included bone. Measurable lesions were identified on lung (S 5 right side and S 10 left side), os sacrum, vertebral 9 rib, right femur, occipital, and lymph nodes (mediastenum, retrocaval). The patient received their first dose of 150 mg vismodegib on Study Day 1.\n011: patient with metastatic basal cell carcinoma (mBCC). No prior surgery for BCC was reported. No prior topical or systemic therapy for BCC was reported. Sites of metastases at the time of screening included bone and lung. Measurable lesion was identified on the skin of trunk. The patient received their first dose of 150 mg vismodegib on Study Day 1.\n005: patient with metastatic basal cell carcinoma (mBCC). Prior surgery for BCC included skin neoplasm excision. Prior radiation directed to head and neck (total dose: 50 Gy). No prior topical or systemic therapy for BCC was reported. Sites of metastasis at the time of screening included neck, sternum and left clavicle. Measurable lesions were identified on neck (supraclavicular region), lung (segment 10 and 3). Non-measurable lesion was identified on sternocleidomastoid muscle and bone (left clavicle and sternum). The patient received their first dose of 150 mg vismodegib on Study Day 1."}, "medulloblastoma": {"system": "medulloblastoma", "settings": "one patient; initial response, then no durable response and relapse of the tumor (Rudin et al., 2009); cited from earlier work"}, "SMO-D473H": {"target": "SMO-D473H (Homo sapiens, UniProt Q99835, D473H)", "sequence (Q99835 28-787 D473H)": "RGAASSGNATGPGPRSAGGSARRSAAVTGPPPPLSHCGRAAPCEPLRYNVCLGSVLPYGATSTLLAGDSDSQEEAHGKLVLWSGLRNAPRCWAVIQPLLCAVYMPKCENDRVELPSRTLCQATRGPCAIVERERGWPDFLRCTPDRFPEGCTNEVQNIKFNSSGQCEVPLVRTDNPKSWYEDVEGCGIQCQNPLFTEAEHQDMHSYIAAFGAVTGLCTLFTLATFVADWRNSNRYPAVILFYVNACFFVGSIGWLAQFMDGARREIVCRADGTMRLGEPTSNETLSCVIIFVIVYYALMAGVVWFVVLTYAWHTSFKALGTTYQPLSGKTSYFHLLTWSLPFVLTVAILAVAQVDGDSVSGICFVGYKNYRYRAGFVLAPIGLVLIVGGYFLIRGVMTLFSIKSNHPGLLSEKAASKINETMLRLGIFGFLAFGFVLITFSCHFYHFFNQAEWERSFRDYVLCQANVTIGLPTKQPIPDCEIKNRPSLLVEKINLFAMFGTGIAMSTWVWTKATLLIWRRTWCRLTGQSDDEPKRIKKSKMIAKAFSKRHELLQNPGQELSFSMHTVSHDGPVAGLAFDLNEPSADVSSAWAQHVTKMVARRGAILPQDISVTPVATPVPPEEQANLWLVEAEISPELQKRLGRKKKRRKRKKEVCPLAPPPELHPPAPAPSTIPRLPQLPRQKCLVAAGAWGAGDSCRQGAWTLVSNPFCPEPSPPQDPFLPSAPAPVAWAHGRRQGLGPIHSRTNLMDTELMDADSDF", "settings": "SMO-D473H mutation from relapsed metastatic MB tumor; cited from earlier work"}, "SMO-G529S": {"target": "T1, SMO-G529S (Homo sapiens, UniProt Q99835, G529S)", "T1 construct": "expressed in transfected cells; host or cells: C3H10T1/2 cells (ATCC), transient transfection with GeneJuice", "T1 sequence (Q99835 28-787 G529S)": "as the sequence (Q99835 28-787 D473H) above, with H446D, G502S counted along it", "assay": "GLI-luciferase reporter assay, vismodegib dose response", "format": "cell-based", "settings": "C3H10T1/2 cells transfected with SMO-G529S compared with SMO-WT; FIG. 7", "method": "Six hours later, cells from one well were trypsinized and redistributed over four wells of a 12-well plate. After 16 hours the FBS content of the culture medium was reduced to 0.5% to induce formation of primary cilia, and small molecule Hh inhibitors were added at indicated concentrations. Firefly luciferase activity was determined 24 hours later with the Dual-Glo Luciferase Assay System (Promega) and read using a Wallac EnVision plate reader (Perkin Elmer). Values were divided by renilla luciferase activities to normalize for transfection efficiency. Individual experiments were carried out in duplicate or triplicate and repeated at least once. Dose response data were fit to a 4-parameter equation in GraphPad Prism: […]"}, "advanced BCC": {"system": "advanced BCC", "settings": "cited from earlier work"}},
  "data": [
    {"smiles": "CS(=O)(=O)c1ccc(C(=O)Nc2ccc(Cl)c(-c3ccccn3)c2)c(Cl)c1", "note": "[vismodegib]", "values": [
      {"measurement": "first PR on target lesions", "setting": "[1]; patient 001, 150 mg vismodegib", "value": 397, "unit": "Study day"},
      {"measurement": "overall response assessment revealed disease progression", "setting": "[1]; patient 001, 150 mg vismodegib", "value": 516, "unit": "Study Day"},
      {"measurement": "overall response assessment showed disease progression", "setting": "[1]; patient 002, 150 mg vismodegib", "value": 399, "unit": "Study Day"},
      {"measurement": "first PR", "setting": "[1]; patient 002, 150 mg vismodegib, cycle 7", "value": 172, "unit": "Study day"},
      {"measurement": "overall response assessment showed progressive disease", "setting": "[1]; patient 005, 150 mg vismodegib", "value": 336, "unit": "Study Day"},
      {"measurement": "overall response assessment showed disease progression", "setting": "[1]; patient 008, 150 mg vismodegib", "value": 673, "unit": "Study Day"},
      {"measurement": "overall response assessment revealed progressive disease", "setting": "[1]; patient 011, 150 mg vismodegib", "value": 310, "unit": "Study Day"},
      {"measurement": "response during treatment", "setting": "[1]; patient 011, 150 mg vismodegib, cycle 11, Study day 282", "value": "stable disease"},
      {"measurement": "response to treatment", "setting": "medulloblastoma", "value": "dramatic response"},
      {"measurement": "drug binding in vitro", "setting": "SMO-D473H", "value": "abrogate drug binding"},
      {"measurement": "sensitivity to vismodegib (Gli-luciferase reporter activity)", "setting": "SMO-G529S", "value": "reduced sensitivity"},
      {"measurement": "clinical outcome of treated BCC patients", "setting": "advanced BCC; majority of BCC patients (Sekulic et al., 2012)", "value": "clinical benefit, including both complete and partial responses"},
      {"measurement": "advanced BCC patients developing resistance to vismodegib", "setting": "advanced BCC; within the first year of treatment, preliminary estimate (Chang and Oro, 2012)", "value": "up to 20%"}
    ]}
  ]
}
